The supplement of paper PMC10883282
± gives the standard deviation of the averaged measurements.

Key:
Test in all cases: relative viability vs DMSO control (72 h) (fraction); higher = more viable cells
HS729 = test system: HS729
How it was run: (§1)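 Densities for seeding sarcoma cell lines into 384-well plates were set to give 80–90% confluence. After 24 h, 2.5 µl of serially diluted compound from source plates of 10 mM to 0.0002 mM went in, and plates stayed 72 h at 37 °C in 5% CO2 with 0.1% DMSO vehicle and a 5 µM positive control. Percent growth from ATPLite readings, averaged over up to triplicate wells, served as relative viability, rescaled so 1 means full and 0 means none.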

SK-ES-1 = test system: SK-ES-1
How it was run: as §1

A204 = test system: A204
How it was run: as §1

SYO-1 = test system: SYO-1
How it was run: as §1

RD = test system: RD
How it was run: as §1

KHOS-NP = test system: KHOS-NP
How it was run: as §1

SW684 = test system: SW684
How it was run: as §1

G401 = test system: G401
How it was run: as §1

VA-ES-BJ = test system: VA-ES-BJ
How it was run: as §1

SW872 = test system: SW872
How it was run: as §1

MES-SA = test system: MES-SA
How it was run: as §1

SK-LMS-1 = test system: SK-LMS-1
How it was run: as §1

CC1(COc2ccc3c(c2)ncn3-c2ccc3cccc(N4CCC(N)CC4)c3n2)COC1 [Crenolanib]
Details	relative viability
A204, 0.00017 µM	1.085 ± 0.0048
A204, 0.00051 µM	1.07 ± 0.04
A204, 0.00152 µM	1.08 ± 0.019
A204, 0.00457 µM	1.05 ± 0.045
A204, 0.01372 µM	1.01 ± 0.057
A204, 0.04115 µM	0.819 ± 0.074
A204, 0.1235 µM	0.594 ± 0.05
A204, 0.3704 µM	0.457 ± 0.017
A204, 1.111 µM	0.403 ± 0.027
A204, 3.333 µM	0.326 ± 0.058
A204, 10 µM	0.016 ± 0.0056
G401, 0.00017 µM	0.968 ± 0.016
G401, 0.00051 µM	0.935 ± 0.022
G401, 0.00152 µM	0.951 ± 0.053
G401, 0.00457 µM	0.942 ± 0.02
G401, 0.01372 µM	0.955 ± 0.028
G401, 0.04115 µM	0.981 ± 0.038
G401, 0.1235 µM	0.972 ± 0.025
G401, 0.3704 µM	0.99 ± 0.022
G401, 1.111 µM	0.95 ± 0.017
G401, 3.333 µM	0.934 ± 0.024
G401, 10 µM	0.0201 ± 0.0027
HS729, 0.00017 µM	0.96 ± 0.073
HS729, 0.00051 µM	0.973 ± 0.061
HS729, 0.00152 µM	1.03 ± 0.019
HS729, 0.00457 µM	0.992 ± 0.052
HS729, 0.01372 µM	1.01 ± 0.065
HS729, 0.04115 µM	0.98 ± 0.031
HS729, 0.1235 µM	0.97 ± 0.019
HS729, 0.3704 µM	1.01 ± 0.032
HS729, 1.111 µM	1.034 ± 0.0065
HS729, 3.333 µM	0.983 ± 0.04
HS729, 10 µM	0.901 ± 0.017
KHOS-NP, 0.00017 µM	1.05 ± 0.025
KHOS-NP, 0.00051 µM	1.03 ± 0.021
KHOS-NP, 0.00152 µM	1.02 ± 0.016
KHOS-NP, 0.00457 µM	1.05 ± 0.038
KHOS-NP, 0.01372 µM	1.03 ± 0.046
KHOS-NP, 0.04115 µM	1.01 ± 0.058
KHOS-NP, 0.1235 µM	0.998 ± 0.09
KHOS-NP, 0.3704 µM	0.946 ± 0.12
KHOS-NP, 1.111 µM	0.765 ± 0.063
KHOS-NP, 3.333 µM	0.605 ± 0.059
KHOS-NP, 10 µM	0.511 ± 0.037
MES-SA, 0.00017 µM	0.919 ± 0.036
MES-SA, 0.00051 µM	0.919 ± 0.025
MES-SA, 0.00152 µM	0.9274 ± 0.0022
MES-SA, 0.00457 µM	0.971 ± 0.019
MES-SA, 0.01372 µM	0.9531 ± 0.0085
MES-SA, 0.04115 µM	0.94 ± 0.035
MES-SA, 0.1235 µM	0.98 ± 0.039
MES-SA, 0.3704 µM	1.05 ± 0.021
MES-SA, 1.111 µM	1.03 ± 0.038
MES-SA, 3.333 µM	0.475 ± 0.012
MES-SA, 10 µM	0.0499 ± 0.012
RD, 0.00017 µM	1.02 ± 0.079
RD, 0.00051 µM	1.05 ± 0.078
RD, 0.00152 µM	1.04 ± 0.064
RD, 0.00457 µM	1.05 ± 0.061
RD, 0.01372 µM	1.07 ± 0.062
RD, 0.04115 µM	1.05 ± 0.052
RD, 0.1235 µM	1.06 ± 0.1
RD, 0.3704 µM	1.1 ± 0.044
RD, 1.111 µM	1.11 ± 0.06
RD, 3.333 µM	0.955 ± 0.055
RD, 10 µM	0.02007 ± 0.00012
SK-ES-1, 0.00017 µM	0.997 ± 0.017
SK-ES-1, 0.00051 µM	0.993 ± 0.05
SK-ES-1, 0.00152 µM	1.01 ± 0.017
SK-ES-1, 0.00457 µM	1.05 ± 0.03
SK-ES-1, 0.01372 µM	1.02 ± 0.027
SK-ES-1, 0.04115 µM	1.02 ± 0.031
SK-ES-1, 0.1235 µM	1.014 ± 0.0023
SK-ES-1, 0.3704 µM	0.949 ± 0.057
SK-ES-1, 1.111 µM	0.675 ± 0.039
SK-ES-1, 3.333 µM	0.188 ± 0.017
SK-ES-1, 10 µM	0.0214 ± 0.0015
SK-LMS-1, 0.00017 µM	0.98 ± 0.015
SK-LMS-1, 0.00051 µM	1.05 ± 0.034
SK-LMS-1, 0.00152 µM	1.036 ± 0.0042
SK-LMS-1, 0.00457 µM	1.04 ± 0.056
SK-LMS-1, 0.01372 µM	1.03 ± 0.036
SK-LMS-1, 0.04115 µM	1.03 ± 0.062
SK-LMS-1, 0.1235 µM	1.07 ± 0.025
SK-LMS-1, 0.3704 µM	1.02 ± 0.042
SK-LMS-1, 1.111 µM	0.967 ± 0.038
SK-LMS-1, 3.333 µM	0.8 ± 0.04
SK-LMS-1, 10 µM	0.0424 ± 0.0014
SW684, 0.00017 µM	1.02 ± 0.053
SW684, 0.00051 µM	1.05 ± 0.038
SW684, 0.00152 µM	1.08 ± 0.07
SW684, 0.00457 µM	1.04 ± 0.035
SW684, 0.01372 µM	1.04 ± 0.018
SW684, 0.04115 µM	1.05 ± 0.041
SW684, 0.1235 µM	1.08 ± 0.067
SW684, 0.3704 µM	1.1 ± 0.06
SW684, 1.111 µM	1.15 ± 0.055
SW684, 3.333 µM	0.978 ± 0.05
SW684, 10 µM	0.423 ± 0.014
SW872, 0.00017 µM	1.03 ± 0.037
SW872, 0.00051 µM	1.01 ± 0.016
SW872, 0.00152 µM	1.03 ± 0.027
SW872, 0.00457 µM	1.06 ± 0.011
SW872, 0.01372 µM	1.05 ± 0.019
SW872, 0.04115 µM	1.02 ± 0.031
SW872, 0.1235 µM	1.01 ± 0.035
SW872, 0.3704 µM	0.988 ± 0.029
SW872, 1.111 µM	0.95 ± 0.031
SW872, 3.333 µM	0.786 ± 0.039
SW872, 10 µM	0.0216 ± 0.0044
SYO-1, 0.00017 µM	0.974 ± 0.045
SYO-1, 0.00051 µM	0.983 ± 0.022
SYO-1, 0.00152 µM	0.996 ± 0.022
SYO-1, 0.00457 µM	0.998 ± 0.026
SYO-1, 0.01372 µM	0.953 ± 0.054
SYO-1, 0.04115 µM	0.867 ± 0.041
SYO-1, 0.1235 µM	0.785 ± 0.01
SYO-1, 0.3704 µM	0.787 ± 0.052
SYO-1, 1.111 µM	0.659 ± 0.015
SYO-1, 3.333 µM	0.307 ± 0.0045
SYO-1, 10 µM	-0.023 ± 0.0067
VA-ES-BJ, 0.00017 µM	1.03 ± 0.027
VA-ES-BJ, 0.00051 µM	1.02 ± 0.03
VA-ES-BJ, 0.00152 µM	1.04 ± 0.038
VA-ES-BJ, 0.00457 µM	1.04 ± 0.038
VA-ES-BJ, 0.01372 µM	1.05 ± 0.021
VA-ES-BJ, 0.04115 µM	1.08 ± 0.038
VA-ES-BJ, 0.1235 µM	1.09 ± 0.035
VA-ES-BJ, 0.3704 µM	1.11 ± 0.023
VA-ES-BJ, 1.111 µM	0.961 ± 0.04
VA-ES-BJ, 3.333 µM	0.466 ± 0.027
VA-ES-BJ, 10 µM	0.108 ± 0.004
